From ChEMBL document CHEMBL5705896 (ACS Chem Biol, 2013)

What was measured:
[1] = molecular target: Muscarinic acetylcholine receptor M5 (Homo sapiens) (UniProt P08912); experiment: Inhibition of M5 receptor (unknown origin) at 10 uM by radioligand binding assay relative to control
[2] = molecular target: Muscarinic acetylcholine receptor M1 (Homo sapiens) (UniProt P11229); experiment: Inhibition of M1 receptor (unknown origin) at 10 uM by radioligand binding assay relative to control
[3] = molecular target: Serine/threonine-protein kinase Chk1 (Homo sapiens) (UniProt O14757); experiment: Inhibition of full length human N-terminal GST tagged CHK1 (1 to 476 end residues) expressed in baculovirus expression system using chk-tide as substrate at 10 uM by mobility shift assay relative to control
[4] = molecular target: Sodium-dependent noradrenaline transporter (Homo sapiens, UniProt P23975)
Sodium-dependent noradrenaline transporter, sequence (P23975 whole entry, the tested form may be a part, canonical isoform): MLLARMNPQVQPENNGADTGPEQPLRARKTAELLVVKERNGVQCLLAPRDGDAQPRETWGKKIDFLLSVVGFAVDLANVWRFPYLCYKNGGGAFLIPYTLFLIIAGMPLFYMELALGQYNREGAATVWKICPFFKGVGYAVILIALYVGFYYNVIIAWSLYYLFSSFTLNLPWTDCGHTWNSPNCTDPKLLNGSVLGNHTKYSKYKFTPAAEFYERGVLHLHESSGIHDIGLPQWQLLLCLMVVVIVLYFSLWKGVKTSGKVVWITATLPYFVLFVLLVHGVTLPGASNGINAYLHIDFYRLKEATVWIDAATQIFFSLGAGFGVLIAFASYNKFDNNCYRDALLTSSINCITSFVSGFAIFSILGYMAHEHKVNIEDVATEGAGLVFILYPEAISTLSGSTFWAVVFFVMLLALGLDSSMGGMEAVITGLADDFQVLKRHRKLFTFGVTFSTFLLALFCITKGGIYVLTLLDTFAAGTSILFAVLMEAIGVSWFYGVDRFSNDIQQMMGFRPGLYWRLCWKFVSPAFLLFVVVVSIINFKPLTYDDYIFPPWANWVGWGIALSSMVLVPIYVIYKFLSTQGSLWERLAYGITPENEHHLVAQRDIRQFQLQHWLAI
Description: Binding affinity to NET (unknown origin) assessed as inhibition constant

[5] = molecular target: Casein kinase I isoform epsilon (Homo sapiens) (UniProt P49674); experiment: Inhibition of human catalytic domain N-terminal GST tagged CK1epsilon (1 to 348 residues) expressed in baculovirus expression system using ck-tide as substrate at 10 uM by mobility shift assay relative to control
[6] = molecular target: High affinity nerve growth factor receptor (Homo sapiens) (UniProt P04629); experiment: Inhibition of human cytoplasmic domain N-terminal GST tagged TRKA (436 to 790 end residues) expressed in baculovirus expression system using CSKtide as substrate at 10 uM by mobility shift assay relative to control
High affinity nerve growth factor receptor (Homo sapiens), sequence (P04629 33-796 limits assumed): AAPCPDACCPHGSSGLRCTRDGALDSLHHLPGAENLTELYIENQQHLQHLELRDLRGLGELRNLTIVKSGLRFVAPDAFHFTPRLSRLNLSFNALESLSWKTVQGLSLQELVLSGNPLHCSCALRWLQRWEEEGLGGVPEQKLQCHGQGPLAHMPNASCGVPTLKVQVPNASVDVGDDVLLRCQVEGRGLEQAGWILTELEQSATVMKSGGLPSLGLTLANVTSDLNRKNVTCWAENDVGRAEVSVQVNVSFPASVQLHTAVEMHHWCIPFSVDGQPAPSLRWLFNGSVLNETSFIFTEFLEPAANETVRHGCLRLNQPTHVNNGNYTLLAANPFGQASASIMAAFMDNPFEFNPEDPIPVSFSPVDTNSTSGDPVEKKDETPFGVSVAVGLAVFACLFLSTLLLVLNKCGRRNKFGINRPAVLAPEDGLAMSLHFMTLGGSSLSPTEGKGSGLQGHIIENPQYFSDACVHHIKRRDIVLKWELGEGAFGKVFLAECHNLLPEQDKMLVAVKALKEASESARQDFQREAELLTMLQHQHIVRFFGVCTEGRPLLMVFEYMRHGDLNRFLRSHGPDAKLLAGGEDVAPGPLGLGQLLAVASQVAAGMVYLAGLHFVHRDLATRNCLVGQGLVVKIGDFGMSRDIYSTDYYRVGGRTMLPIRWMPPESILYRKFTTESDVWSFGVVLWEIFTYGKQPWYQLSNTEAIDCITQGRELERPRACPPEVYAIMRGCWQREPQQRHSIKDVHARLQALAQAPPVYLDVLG

[7] = molecular target: Mitogen-activated protein kinase kinase kinase kinase 4 (Homo sapiens) (UniProt O95819); experiment: Inhibition of human catalytic domain N-terminal GST tagged HGK (1 to 328 residues) expressed in baculovirus expression system using moesin-derived peptide as substrate at 10 uM by mobility shift assay relative to control
Mitogen-activated protein kinase kinase kinase kinase 4 (Homo sapiens), sequence (O95819 2-1239 limits assumed): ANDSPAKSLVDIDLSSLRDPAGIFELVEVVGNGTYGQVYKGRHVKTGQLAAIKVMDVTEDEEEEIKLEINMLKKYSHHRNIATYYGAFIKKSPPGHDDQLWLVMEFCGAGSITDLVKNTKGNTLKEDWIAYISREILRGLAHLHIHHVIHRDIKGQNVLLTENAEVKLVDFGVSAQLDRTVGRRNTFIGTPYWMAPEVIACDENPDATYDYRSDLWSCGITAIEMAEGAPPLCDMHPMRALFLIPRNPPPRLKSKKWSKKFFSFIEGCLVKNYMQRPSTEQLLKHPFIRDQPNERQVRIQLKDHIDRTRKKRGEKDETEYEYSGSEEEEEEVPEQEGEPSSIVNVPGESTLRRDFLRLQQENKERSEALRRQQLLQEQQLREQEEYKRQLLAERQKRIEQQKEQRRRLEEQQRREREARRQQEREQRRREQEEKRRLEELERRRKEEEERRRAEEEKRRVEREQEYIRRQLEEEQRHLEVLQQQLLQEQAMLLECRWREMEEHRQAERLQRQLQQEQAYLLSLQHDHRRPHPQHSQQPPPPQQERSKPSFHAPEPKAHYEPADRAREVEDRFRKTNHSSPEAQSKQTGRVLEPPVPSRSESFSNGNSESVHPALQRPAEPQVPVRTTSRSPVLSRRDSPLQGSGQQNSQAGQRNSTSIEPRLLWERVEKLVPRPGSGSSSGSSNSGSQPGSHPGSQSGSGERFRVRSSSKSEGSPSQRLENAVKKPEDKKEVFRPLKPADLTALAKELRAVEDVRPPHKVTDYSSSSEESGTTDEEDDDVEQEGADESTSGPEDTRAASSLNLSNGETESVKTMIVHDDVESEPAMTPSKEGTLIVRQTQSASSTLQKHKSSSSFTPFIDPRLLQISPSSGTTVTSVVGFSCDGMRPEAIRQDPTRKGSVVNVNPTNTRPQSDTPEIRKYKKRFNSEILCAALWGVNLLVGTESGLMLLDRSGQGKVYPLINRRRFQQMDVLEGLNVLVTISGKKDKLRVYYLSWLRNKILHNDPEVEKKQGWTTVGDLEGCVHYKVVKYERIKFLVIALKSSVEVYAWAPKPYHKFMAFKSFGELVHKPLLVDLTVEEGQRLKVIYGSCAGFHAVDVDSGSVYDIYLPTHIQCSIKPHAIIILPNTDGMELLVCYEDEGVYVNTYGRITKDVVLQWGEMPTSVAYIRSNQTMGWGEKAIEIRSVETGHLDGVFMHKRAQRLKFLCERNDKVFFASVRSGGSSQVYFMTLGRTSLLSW

[8] = molecular target: DNA (cytosine-5)-methyltransferase 1 (Homo sapiens, UniProt P26358); experiment: Inhibition of DNMT1 (unknown origin) using hemimethylated dsDNA as substrate incubated for 1 hr by scintillation proximity assay
[9] = molecular target: Fibroblast growth factor receptor 1 (Homo sapiens) (UniProt P11362); experiment: Inhibition of human cytoplasmic domain N-terminal GST tagged FGFR1 (398 to 822 end residues) expressed in baculovirus expression system using CSKtide as substrate at 10 uM by mobility shift assay relative to control
[10] = molecular target: CDK2/Cyclin A2 (Homo sapiens) (UniProt P24941+P20248); experiment: Inhibition of full length human N-terminal GST tagged CDK2 (1 to 298 residues)/GST tagged CycA2 (1 to 432 end residues) expressed in baculovirus expression system using histone H1 as substrate at 10 uM by mobility shift assay relative to control
[11] = molecular target: 5-hydroxytryptamine receptor 6 (Homo sapiens) (UniProt P50406); experiment: Inhibition of 5-HT6 receptor (unknown origin) at 10 uM by radioligand binding assay relative to control
[12] = Inhibition of human catalytic domain N-terminal GST tagged p70S6K (1 to 421 residues) expressed in baculovirus expression system using S6K2 peptide as substrate at 10 uM by mobility shift assay relative to control; conditions: condition weaver syndrome
[13] = molecular target: Lymphokine-activated killer T-cell-originated protein kinase (Homo sapiens) (UniProt Q96KB5); experiment: Inhibition of full length human N-terminal GST tagged PBK (1 to 322 end residues) expressed in baculovirus expression system using histone H3 as substrate at 10 uM by mobility shift assay relative to control
[14] = molecular target: Alpha-2B adrenergic receptor (Homo sapiens) (UniProt P18089); experiment: Inhibition of Alpha2B receptor (unknown origin) at 10 uM by radioligand binding assay relative to control
[15] = molecular target: Mitogen-activated protein kinase 1 (Homo sapiens) (UniProt P28482); experiment: Inhibition of full length human N-terminal GST tagged Erk2 (1 to 360 end residues) expressed in Escherichia coli expression system using modified Erktide as substrate at 10 uM by mobility shift assay relative to control
Mitogen-activated protein kinase 1 (Homo sapiens), sequence (P28482 whole entry): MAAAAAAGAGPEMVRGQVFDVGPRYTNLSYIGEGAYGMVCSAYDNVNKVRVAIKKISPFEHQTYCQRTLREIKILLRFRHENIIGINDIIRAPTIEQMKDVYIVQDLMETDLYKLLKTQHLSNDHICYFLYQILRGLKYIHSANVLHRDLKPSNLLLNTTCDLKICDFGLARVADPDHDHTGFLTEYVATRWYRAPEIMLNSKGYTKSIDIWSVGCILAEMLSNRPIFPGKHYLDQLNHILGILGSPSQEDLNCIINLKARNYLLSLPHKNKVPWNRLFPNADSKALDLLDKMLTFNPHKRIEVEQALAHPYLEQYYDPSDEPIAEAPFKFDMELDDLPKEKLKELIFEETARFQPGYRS

[16] = molecular target: Alpha-1B adrenergic receptor (Homo sapiens) (UniProt P35368); experiment: Inhibition of Alpha1B receptor (unknown origin) at 10 uM by radioligand binding assay relative to control
[17] = molecular target: Mu-type opioid receptor (Homo sapiens) (UniProt P35372); experiment: Inhibition of MOR (unknown origin) at 10 uM by radioligand binding assay relative to control
Mu-type opioid receptor (Homo sapiens), sequence (P35372 whole entry): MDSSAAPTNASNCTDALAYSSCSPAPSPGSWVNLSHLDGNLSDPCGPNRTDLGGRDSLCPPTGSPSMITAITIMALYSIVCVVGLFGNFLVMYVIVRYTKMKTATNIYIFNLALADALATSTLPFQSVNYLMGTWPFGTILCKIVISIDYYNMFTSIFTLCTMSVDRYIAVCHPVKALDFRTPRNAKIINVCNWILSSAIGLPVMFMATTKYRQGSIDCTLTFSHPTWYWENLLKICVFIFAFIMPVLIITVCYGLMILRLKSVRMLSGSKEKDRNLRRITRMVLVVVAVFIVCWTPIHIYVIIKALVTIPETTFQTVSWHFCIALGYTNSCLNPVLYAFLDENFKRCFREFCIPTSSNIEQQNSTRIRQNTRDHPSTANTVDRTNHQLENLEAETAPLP

[18] = molecular target: Histone-lysine N-methyltransferase 2A (Homo sapiens, UniProt Q03164); experiment: Inhibition of MLL1 (unknown origin) using [3H-SAM] as substrate incubated for 1 hr by scintillation proximity assay
[19] = molecular target: Proto-oncogene tyrosine-protein kinase Src (Homo sapiens) (UniProt P12931); experiment: Inhibition of full length human N-terminal GST tagged SRC (1 to 536 end residues) expressed in baculovirus expression system using Srctide as substrate at 10 uM by mobility shift assay relative to control
Proto-oncogene tyrosine-protein kinase Src (Homo sapiens), sequence (P12931 2-536 limits assumed): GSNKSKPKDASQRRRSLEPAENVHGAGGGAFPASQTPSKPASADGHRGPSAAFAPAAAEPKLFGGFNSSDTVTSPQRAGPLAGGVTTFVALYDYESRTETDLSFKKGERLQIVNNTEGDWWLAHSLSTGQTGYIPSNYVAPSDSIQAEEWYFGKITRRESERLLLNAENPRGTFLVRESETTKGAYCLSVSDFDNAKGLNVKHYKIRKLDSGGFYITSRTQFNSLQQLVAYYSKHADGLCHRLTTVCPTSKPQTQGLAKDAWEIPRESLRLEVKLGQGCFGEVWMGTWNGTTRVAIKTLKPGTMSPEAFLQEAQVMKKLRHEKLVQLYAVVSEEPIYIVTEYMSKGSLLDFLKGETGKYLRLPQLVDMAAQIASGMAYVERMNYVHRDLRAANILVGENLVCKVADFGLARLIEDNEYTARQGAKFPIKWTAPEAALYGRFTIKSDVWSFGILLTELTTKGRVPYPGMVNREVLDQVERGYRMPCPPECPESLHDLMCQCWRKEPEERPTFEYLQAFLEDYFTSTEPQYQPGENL

[20] = molecular target: 5-hydroxytryptamine receptor 2C (Homo sapiens) (UniProt P28335); experiment: Inhibition of 5-HT2C receptor (unknown origin) at 10 uM by radioligand binding assay relative to control
[21] = molecular target: Protein-tyrosine kinase 2-beta (Homo sapiens) (UniProt Q14289); experiment: Inhibition of full length human N-terminal GST tagged PYK2 (1 to 967 end residues) expressed in baculovirus expression system using Blk/lyntide as substrate at 10 uM by mobility shift assay relative to control
Histamine H3 receptor = Histamine H3 receptor (Homo sapiens, UniProt Q9Y5N1)
Histamine H3 receptor, sequence (Q9Y5N1 whole entry): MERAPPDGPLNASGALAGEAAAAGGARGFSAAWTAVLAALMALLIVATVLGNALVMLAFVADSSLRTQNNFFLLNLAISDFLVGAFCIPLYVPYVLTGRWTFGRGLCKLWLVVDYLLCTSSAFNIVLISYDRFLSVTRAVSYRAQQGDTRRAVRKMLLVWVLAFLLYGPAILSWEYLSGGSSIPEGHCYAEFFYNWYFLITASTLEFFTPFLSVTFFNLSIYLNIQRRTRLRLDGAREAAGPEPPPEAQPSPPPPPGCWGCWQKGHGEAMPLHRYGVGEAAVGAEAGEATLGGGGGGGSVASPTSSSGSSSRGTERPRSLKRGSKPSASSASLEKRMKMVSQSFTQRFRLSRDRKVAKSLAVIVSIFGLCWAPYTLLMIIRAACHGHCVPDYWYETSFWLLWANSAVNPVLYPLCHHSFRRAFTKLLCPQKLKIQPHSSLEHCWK
Description: Binding affinity to H3 receptor (unknown origin) assessed as inhibition constant

[22] = molecular target: Muscarinic acetylcholine receptor M3 (Homo sapiens) (UniProt P20309); experiment: Inhibition of M3 receptor (unknown origin) at 10 uM by radioligand binding assay relative to control
[23] = Toxicity in Swiss albino mouse assessed as drug tolerance at 15 to 150 mg/kg administered as single ip dose measured upto 24 hrs; format: organism-based; conditions: in vivo, dose 15-150 mg/kg
[24] = molecular target: Muscarinic acetylcholine receptor M2 (Homo sapiens) (UniProt P08172); experiment: Inhibition of M2 receptor (unknown origin) at 10 uM by radioligand binding assay relative to control
[25] = molecular target: Ephrin type-A receptor 2 (Homo sapiens) (UniProt P29317); experiment: Inhibition of human cytoplasmic domain N-terminal GST tagged EPHA2 (572 to 976 end residues) expressed in baculovirus expression system using Blk/lyntide as substrate at 10 uM by mobility shift assay relative to control
[26] = molecular target: 5-hydroxytryptamine receptor 1B (Homo sapiens) (UniProt P28222); experiment: Inhibition of 5-HT1B receptor (unknown origin) at 10 uM by radioligand binding assay relative to control
[27] = molecular target: Tyrosine-protein kinase CSK (Homo sapiens) (UniProt P41240); experiment: Inhibition of full length human N-terminal GST tagged CSK (1 to 450 end residues) expressed in baculovirus expression system using Srctide as substrate at 10 uM by mobility shift assay relative to control
Tyrosine-protein kinase CSK (Homo sapiens), sequence (P41240 2-450 limits assumed): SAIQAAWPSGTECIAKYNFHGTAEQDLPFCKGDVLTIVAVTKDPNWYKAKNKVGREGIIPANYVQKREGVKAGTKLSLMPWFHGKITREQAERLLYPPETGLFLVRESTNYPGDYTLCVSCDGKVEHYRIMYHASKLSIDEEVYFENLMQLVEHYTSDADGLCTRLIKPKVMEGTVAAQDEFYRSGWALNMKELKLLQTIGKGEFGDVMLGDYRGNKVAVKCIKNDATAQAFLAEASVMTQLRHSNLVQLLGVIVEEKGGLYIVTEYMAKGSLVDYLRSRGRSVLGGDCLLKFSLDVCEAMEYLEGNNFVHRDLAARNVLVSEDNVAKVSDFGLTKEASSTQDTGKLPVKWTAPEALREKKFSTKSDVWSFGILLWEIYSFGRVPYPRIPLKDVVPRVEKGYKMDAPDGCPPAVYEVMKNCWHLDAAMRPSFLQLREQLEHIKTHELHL

[28] = molecular target: Sodium-dependent serotonin transporter (Homo sapiens) (UniProt P31645); experiment: Inhibition of SERT (unknown origin) at 10 uM by radioligand binding assay relative to control

SMILES: CCCc1cc(C)[nH]c(=O)c1CNC(=O)c1cc(-c2ccc(N3CCN(C(C)C)CC3)nc2)cc2c1cnn2C(C)C
- inhibition [1]: 9%
- inhibition [2]: 19%
- inhibition [3]: -2%
- Ki [4]: 1.5 µM
- inhibition [5]: -4%
- inhibition [6]: 7%
- inhibition [7]: -2%
- IC50 [8]: > 100 µM
- inhibition [9]: -9%
- inhibition [10]: -3%
- inhibition [11]: 11%
- inhibition at 10 µM [12]: 6%
- inhibition [13]: -10%
- inhibition [14]: 48%
- inhibition [15]: 3%
- inhibition [16]: 6%
- inhibition [17]: 13%
- IC50 [18]: > 100 µM
- inhibition [19]: -1%
- inhibition [20]: 22%
- inhibition [21]: -5%
- Ki (Histamine H3 receptor): 0.3 µM
- inhibition [22]: 10%
- Activity [23]: Non-Toxic
- inhibition [24]: 41%
- inhibition [25]: -6%
- inhibition [26]: 44%
- inhibition [27]: -4%
- inhibition [28]: 6%
